Test results as given in patent US20240173422A1, “BICYCLIC PEPTIDE LIGAND DRUG CONJUGATES” (BICYCLETX LIMITED, priority 2019, published 2024).
pKd: −log10 of the molar value. Numbered stars: 1 amine (or outer) side, 2 acyl side, 3 side chain; on linkers, the order of the positions; unused ones are H or OH. Bridge positions count the residues as written; N and C are the ends. Square brackets hold non-standard residues; d marks the D form. I, II: the chains in the order shown. * marks the point of attachment. X2 = O=C(CCOCCOCCOCCOCCOCCOCCOCCOCCOCCOCCC(=O)[*:2])[*:1]; TATA = O=C(CC[*:1])N1CN(C(=O)CC[*:2])CN(C(=O)CC[*:3])C1; Dolaproine = CO[C@@H]([C@@H]1CCCN1)[C@@H](C)C(=O)O; Dil = CC[C@H](C)[C@H](NC)[C@@H](CC(=O)O)OC; 1Nal = N[C@@H](Cc1cccc2ccccc12)C(=O)O; X3 = O=C(CCCC(=O)[*:2])NCCC(=O)[*:1]; PABC = O=C(OCc1ccc(N[*:1])cc1)[*:2]; X1 = C[C@@H](N*)[C@@H](O)c1ccccc1; Hyp = O=C(O)[C@@H]1C[C@@H](O)CN1; Cit = NC(=O)NCCC[C@H](N)C(=O)O; NMeV = CN[C@H](C(=O)O)C(C)C; Sar = CNCC(=O)O

Tests used:
[1] = biological target: Human Nectin-4 (residues Gly32-Ser349; NCBI RefSeq: NP_112178.2) with C-terminal FLAG tag, biotinylated (human) (UniProt Q96NY8); experiment: SPR (Biacore 3000), biotinylated Nectin-4 captured on streptavidin CM5 chip, peptide as analyte
[2] = biological target: Human Nectin-4 (residues Gly32-Ser349; NCBI RefSeq: NP_112178.2) with C-terminal FLAG tag, biotinylated (human) (UniProt Q96NY8); experiment: SPR binding assay, against BCY8126 as reference
[3] = biological target: T1, human Nectin-4 (Homo sapiens, UniProt Q96NY8); experiment: Nectin-4 Biacore SPR binding assay
T1 sequence (Q96NY8 32-349): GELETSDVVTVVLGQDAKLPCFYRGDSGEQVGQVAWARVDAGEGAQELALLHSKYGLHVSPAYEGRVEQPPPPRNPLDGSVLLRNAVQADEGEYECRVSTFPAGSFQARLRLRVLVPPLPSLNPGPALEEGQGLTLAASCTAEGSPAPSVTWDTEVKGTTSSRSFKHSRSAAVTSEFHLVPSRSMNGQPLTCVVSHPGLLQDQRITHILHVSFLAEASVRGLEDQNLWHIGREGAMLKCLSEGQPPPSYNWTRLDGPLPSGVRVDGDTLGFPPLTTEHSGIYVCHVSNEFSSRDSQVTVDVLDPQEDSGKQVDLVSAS

[4] = test system: NCI-H292 xenograft; experiment: In vivo efficacy study in NCI-H292 xenograft in Balb/c nude mice; parameters: species or system Balb/c nude mice (Mus Musculus); conditions: 3 mpk, iv
From the text: In Vivo Efficacy Study of BCY8244 in Treatment of NCI-H292 Xenograft in Balb/c Nude Mice
The objective of the research is to evaluate the in vivo anti-tumor efficacy of BCY8244 in treatment of NCI-H292 xenograft in Balb/c nude mice.
• Species: Mus Musculus • Strain: Balb/c nude • Age: 6-8 weeks • Sex: female • Body weight: 18-22 g • Number of animals: 43 mice plus spare • Animal supplier: Shanghai Lingchang Biotechnology Experimental Animal Co. Ltd
The NCI-H292 tumor cells were maintained in vitro as a monolayer culture in RPMI-1640 medium supplemented with 10% heat inactivated fetal bovine serum at 37° C. in an atmosphere of 5% CO2 in air. The tumor cells were routinely subcultured twice weekly by trypsin-EDTA treatment. The cells growing in an exponential growth phase were harvested and counted for tumor inoculation.
Each mouse was inoculated subcutaneously at the right flank with NCI-H292 tumor cells (10×10^6) in 0.2 ml of PBS for tumor development. 43 animals were randomized when the average tumor volume reached 168 mm^3. The test article administration and the animal numbers in each group were shown in the experimental design table.
The major endpoint was to see if the tumor growth could be delayed or mice could be cured. Tumor volume was measured three times weekly in two dimensions using a caliper, and the volume was expressed in mm^3 using the formula: V=0.5 a×b^2 where a and b are the long and short diameters of the tumor, respectively. The tumor size was then used for calculations of T/C value. The T/C value (in percent) is an indication of antitumor effectiveness; T and C are the mean volumes of the treated and control groups, respectively, on a given day. TGI was calculated for each group using the formula: TGI (%)=[1−(Ti−T0)/(Vi−V0)]×100; Ti is the average tumor volume of a treatment group on a given day, T0 is the average tumor volume of the treatment group on the day of treatment start, Vi is the average tumor volume of the vehicle control group on the same day with Ti and V0 is the average tumor volume of the vehicle group on the day of treatment start.
Summary statistics, including mean and the standard error of the mean (SEM), were provided for the tumor volume of each group at each time point.
Statistical analysis of difference in tumor volume among the groups was conducted on the data obtained at the best therapeutic time point after the final dose.
A t-test was performed to compare tumor volume among groups, […]. All data were analyzed using GraphPad Prism 5.0. P<0.05 was considered to be statistically significant.
Tumor growth inhibition rate for test articles in the NCI-H292 xenograft model was calculated based on tumor volume measurements at day 14 after the start of treatment.

[5] = Body weight monitoring in the NCI-H292 xenograft study; format: in vivo, Balb/c nude mice (Mus Musculus); conditions: 3 mpk, iv, qw
Procedure: All the procedures related to animal handling, care and the treatment in the study were performed according to the guidelines approved by the Institutional Animal Care and Use Committee (IACUC) of WuXi AppTec, following the guidance of the Association for Assessment and Accreditation of Laboratory Animal Care (AAALAC). At the time of routine monitoring, the animals were checked for any effects of tumor growth and treatments on normal behavior such as mobility, food and water consumption (by looking only), body weight gain/loss, eye/hair matting and any other abnormal effect as stated in the protocol. Death and observed clinical signs were recorded on the basis of the numbers of animals within each subset.

In the case of BCY8126 (Nectin-4 monomer) (peptide), the pKd [1] was 8.84, the koff [1] was 0.000969 s⁻¹ and the kon [1] was 662000 M⁻¹ s⁻¹.
For “BCY8244 (Nectin-4 homo-tandem), BDC of formula (A) (peptide)”, the fold greater binding activity than BCY8126 [2] was 3.5 fold and the koff [1] was 0.000319 s⁻¹.
With “I: [Sar][Sar][Sar][Sar][Sar][Sar][Sar][Sar][Sar][Sar]CP[1Nal][dD]CMKDWSTP[Hyp]WC-NH2 / II: [Sar][Sar][Sar][Sar][Sar][Sar][Sar][Sar][Sar][Sar]CP[1Nal][dD]CMKDWSTP[Hyp]WC-NH2 / III: V[Cit][PABC][NMeV]V[Dil][Dolaproine]-X1 / IV: V[Cit][PABC][NMeV]V[Dil][Dolaproine]-X1 (linker I:11-I:15-I:25, II:11-II:15-II:25 via TATA; linker I:17-II:17 via X2; linker I:N-III:N, II:N-IV:N via X3; C-terminus assumed) [BCY8244]” the pKd [3] was 9.37, the “binding in the SPR binding assay” value [3] was “good levels of binding” and the kd ([3]; Biacore SPR, biotinylated human Nectin-4, 25° C.) was 0.000319 s⁻¹. For the same substance, the “fold greater binding activity in the SPR binding assay than monomeric BCY8126” value ([3]; homo-tandem versus monomer) was 3.5 fold, the kon ([3]; read-out: ka) was 750000 M⁻¹ s⁻¹ and the “tumor inhibitory effect” value ([4]; NCI-H292 xenograft, qw, 3 mg/kg) was “excellent levels of tumor inhibitory effect and regressed the tumors potently”. The “Tumor volume (mean ± SEM)” value ([4]; day 0 after the start of treatment, qw) was 168 ± 20 mm^3, the “Tumor volume (mean ± SEM)” value ([4]; day 2 after the start of treatment, qw) was 187 ± 20 mm^3 and the “Tumor volume (mean ± SEM)” value ([4]; day 4 after the start of treatment, qw) was 180 ± 48 mm^3. For the same substance, the “Tumor volume (mean ± SEM)” value ([4]; day 7 after the start of treatment, qw) was 155 ± 33 mm^3, the “Tumor volume (mean ± SEM)” value ([4]; day 9 after the start of treatment, qw) was 141 ± 29 mm^3 and the “Tumor volume (mean ± SEM)” value ([4]; day 11 after the start of treatment, qw) was 96 ± 23 mm^3. For the same substance, the TGI ([4]; day 14, qw) was 109.0%, the “Tumor volume (mean ± SEM)” value ([4]; day 14, qw (Table 5)) was 108 ± 15 mm^3 and the T/C ([4]; day 14, qw, treated/control mean tumor volume) was 12.8%. For the same substance, the “Tumor volume (mean ± SEM)” value ([4]; day 14 after the start of treatment, qw (Table 4)) was 108 ± 15 mm^3 and the “body weight” value [5] was “maintained the bodyweight well”.
